Measured values published in patent publication US10736908B2, “Antiviral aryl-amide phosphodiamide compounds” (Merck Sharp & Dohme Corp., priority 2016, dated 2020).
Where two headings read alike, the source gives them in different places.

Tested on: HIV-1 (H9/IIIB strain)
Experiment: Multiple round HIV-1 infection assay (Viking assay) in MT4-GFP cells
Type: cell-based
Settings: HIV-1 replication in MT4-GFP cells
Procedure: Assessing Antiviral Potency in a Multiple Round HIV-1 Infection Assay (Viking Assay)
The antiviral activity of the tenofovir prodrugs of the Examples herein was assessed in an assay that measures the rate of replication of HIV in cell culture, termed the Viking assay (VIral KINetics in Green cells) and performed as follows. HIV-1 replication was monitored using MT4-gag-GFP clone D3 (hereafter designated MT4-GFP), which are MT-4 cells modified to harbor a GFP reporter gene, the expression of which is dependent on the HIV-1 expressed proteins tat and rev. Productive infection of an MT4-GFP cell with HIV-1 results in GFP expression approximately 24 h post-infection. MT4-GFP cells were maintained at 37° C./5% CO2/90% relative humidity in RPMI 1640 supplemented with 10% fetal bovine serum, 100 U/ml penicillin/streptomycin, and 400 μg/ml G418 to maintain the reporter gene. For infections, MT4-GFP cells were placed in the same medium lacking G418 and infected overnight with HIV-1 (H9/IIIB strain) virus at an approximate multiplicity of infection of 0.01 in the same incubation conditions. […] Compound plates were prepared by dispensing compounds dissolved in DMSO into wells of 384 well poly-D-lysine-coated plates (0.2 μl/well) using an ECHO acoustic dispenser. Each compound was tested in a 10-point serial 3-fold dilution (typical final concentrations: 8.4 μM-0.42 nM). Controls included no inhibitor (DMSO only) and a combination of three antiviral agents (efavirenz, indinavir, an in-house integrase strand transfer inhibitor at final concentrations of 4 μM each). Cells were added (50 μL/well) to compound plates and the infected cells were maintained at 37° C./5% CO2/90% relative humidity.
Infected cells were quantified at two time points, ˜48 h and ˜72 h post-infection, by counting the number of green cells in each well using an Acumen eX3 scanner. The increase in the number of green cells over ˜24 h period gives the reproductive ratio, R0, which is typically 5-15 and has been shown experimentally to be in logarithmic phase (data not shown). Inhibition of R0 is calculated for each well, and IC50s determined by non-linear 4-parameter curve fitting.

[1] = Human immunodeficiency virus 1, IIIB, 50% NHS (normal human serum), read-out: Viking, IC50 (50% NHS)
[2] = Human immunodeficiency virus 1, IIIB, head prints 100% NHS (normal human serum), read-out: Viking, IC50 (100% NHS)
[3] = 50% NHS (normal human serum), read-out: Viking, IC50 (50% NHS)
[4] = head prints 100% NHS (normal human serum), read-out: Viking, IC50 (100% NHS)

| Structure (SMILES) | IC50 [1] [nM] | IC50 [2] [nM] | IC50 [3] [nM] | IC50 [4] [nM] |
| --- | --- | --- | --- | --- |
| CC(C)OC(=O)C(C)(C)NP(=O)(CO[C@H](C)Cn1cnc2c(N)ncnc21)NC(=O)c1ccc(Cl)cc1 (mixture of isomers) [Example 1A, isopropyl 2-(((R)—((((R)-1-(6-amino-9H-purin-9-yl)propan-2-yl)oxy)methyl)(4-chlorobenzamido)phosphoryl)amino)-2-methylpropanoate and isopropyl 2-(((S)—((((R)-1-(6-amino-9H-purin-9-yl)propan-2-yl)oxy)methyl)(4-chlorobenzamido)phosphoryl)amino)-2-methylpropanoate] | 286 | 82.4 | – | – |
| CCCOC(=O)C(C)(C)NP(=O)(CO[C@H](C)Cn1cnc2c(N)ncnc21)NC(=O)c1ccc(OC)cc1 (single isomer, unassigned) [Example 2A] | 93.2 | 32.4 | – | – |
| CCCOC(=O)C(C)(C)NP(=O)(CO[C@H](C)Cn1cnc2c(N)ncnc21)NC(=O)c1ccc(Cl)cc1 (single isomer, unassigned) [Example 4A] | – | – | 57.9 | 12 |
| CC(C)COC(=O)C(C)(C)NP(=O)(CO[C@H](C)Cn1cnc2c(N)ncnc21)NC(=O)c1ccc(Cl)cc1 (single isomer, unassigned) [Example 5A] | – | – | 79.8 | 12.3 |
| CC(C)COC(=O)C(C)(C)NP(=O)(CO[C@H](C)Cn1cnc2c(N)ncnc21)NC(=O)c1ccc(Cl)cc1 (single isomer, unassigned) [Example 5B] | – | – | 24.4 | 1.9 |
| C[C@H](Cn1cnc2c(N)ncnc21)OCP(=O)(NC(=O)c1ccc(Cl)cc1)NC(C)(C)C(=O)OC1CCC1 (single isomer, unassigned) [Example 6A] | – | – | 36.9 | 11.1 |
| C[C@H](Cn1cnc2c(N)ncnc21)OCP(=O)(NC(=O)c1ccc(Cl)cc1)NC(C)(C)C(=O)OC1CCCC1 (single isomer, unassigned) [Example 7A] | – | – | 31.7 | 8.4 |
| C[C@H](Cn1cnc2c(N)ncnc21)OCP(=O)(NC(=O)c1ccc(Cl)cc1)NC(C)(C)C(=O)OC1CCCC1 (single isomer, unassigned) [Example 7B] | – | – | 13.5 | 1.92 |
| CCOCCOC(=O)C(C)(C)NP(=O)(CO[C@H](C)Cn1cnc2c(N)ncnc21)NC(=O)c1ccc(Cl)cc1 (single isomer, unassigned) [Example 8A] | – | 63.9 | 133 | – |
| CCOCCOC(=O)C(C)(C)NP(=O)(CO[C@H](C)Cn1cnc2c(N)ncnc21)NC(=O)c1ccc(Cl)cc1 (single isomer, unassigned) [Example 8B] | – | – | 62.2 | 41.1 |
| C[C@H](Cn1cnc2c(N)ncnc21)OCP(=O)(NC(=O)c1ccc(Cl)cc1)NC(C)(C)C(=O)OC1CCOCC1 (single isomer, unassigned) [Example 9A] | – | – | 1440 | 404 |
| CC(C)OC(=O)C(C)(C)NP(=O)(CO[C@H](C)Cn1cnc2c(N)ncnc21)NC(=O)c1ccc(F)cc1 (single isomer, unassigned) [Example 10A] | – | – | 264 | 129 |
| CCCCCOC(=O)C(C)(C)NP(=O)(CO[C@H](C)Cn1cnc2c(N)ncnc21)NC(=O)c1ccc(F)cc1 (single isomer, unassigned) [Example 11B] | – | – | 30.8 | 5.7 |
| CCOCCOC(=O)C(C)(C)NP(=O)(CO[C@H](C)Cn1cnc2c(N)ncnc21)NC(=O)c1ccccc1Cl (single isomer, unassigned) [Example 12A] | 90.6 | 30.9 | – | – |
| CCOCCOC(=O)C(C)(C)NP(=O)(CO[C@H](C)Cn1cnc2c(N)ncnc21)NC(=O)c1ccccc1Cl (single isomer, unassigned) [Example 12B] | – | – | 83.4 | 26.7 |
| CC(C)OC(=O)C(C)(C)NP(=O)(CO[C@H](C)Cn1cnc2c(N)ncnc21)NC(=O)c1ccncn1 (single isomer, unassigned) [Example 13A] | – | – | 2130 | 854 |

| Structure (SMILES) | IC50 [1] [nM] | IC50 [2] [nM] | IC50 [3] [nM] | IC50 [4] [nM] |
| --- | --- | --- | --- | --- |
| CC(C)OC(=O)C(C)(C)NP(=O)(CO[C@H](C)Cn1cnc2c(N)ncnc21)NC(=O)c1ccncn1 (single isomer, unassigned) [Example 13B] | – | – | 480 | 164 |
| CC(C)OC(=O)C(C)(C)NP(=O)(CO[C@H](C)Cn1cnc2c(N)ncnc21)NC(=O)c1cnccn1 (single isomer, unassigned) [Example 14A] | – | – | 1570 | 284 |
| CC(C)OC(=O)C(C)(C)NP(=O)(CO[C@H](C)Cn1cnc2c(N)ncnc21)NC(=O)c1cnccn1 (single isomer, unassigned) [Example 14B] | – | – | 314 | 112 |
| CCCCCOC(=O)C(C)(C)NP(=O)(CO[C@H](C)Cn1cnc2c(N)ncnc21)NC(=O)c1cccs1 (single isomer, unassigned) [Example 15B] | – | – | 29.8 | 8.1 |
| CCCCCOC(=O)C(C)(C)NP(=O)(CO[C@H](C)Cn1cnc2c(N)ncnc21)NC(=O)c1ccccc1OC (single isomer, unassigned) [Example 16A] | 153 | 13.3 | – | – |
| CCCCCOC(=O)C(C)(C)NP(=O)(CO[C@H](C)Cn1cnc2c(N)ncnc21)NC(=O)c1ccccc1OC (single isomer, unassigned) [Example 16B] | – | – | 139 | 15.5 |
| COc1ccc(C(=O)NP(=O)(CO[C@H](C)Cn2cnc3c(N)ncnc32)NC(C)(C)C(=O)OC(C)C)cc1 (single isomer, unassigned) [Example 17A] | – | – | 54.3 | 18.3 |
| COc1ccc(C(=O)NP(=O)(CO[C@H](C)Cn2cnc3c(N)ncnc32)NC(C)(C)C(=O)OC(C)C)cc1 (single isomer, unassigned) [Example 17B] | – | – | 390 | 157 |
| CCCCCOC(=O)C(C)(C)NP(=O)(CO[C@H](C)Cn1cnc2c(N)ncnc21)NC(=O)c1ccc(C)cc1 (single isomer, unassigned) [Example 18A] | – | – | 35.4 | 9 |
| CCCOC(=O)C(C)(C)NP(=O)(CO[C@H](C)Cn1cnc2c(N)ncnc21)NC(=O)c1ccccc1Cl (single isomer, unassigned) [Example 21B] | 229 | 33.6 | – | – |
| CCOC(=O)C(C)(C)NP(=O)(CO[C@H](C)Cn1cnc2c(N)ncnc21)NC(=O)c1ccc(C(C)(C)C)cc1 (single isomer, unassigned) [Example 22A] | – | – | 48.1 | 15.1 |
| CCOC(=O)C(C)(C)NP(=O)(CO[C@H](C)Cn1cnc2c(N)ncnc21)NC(=O)c1ccc(C(C)(C)C)cc1 (single isomer, unassigned) [Example 22B] | – | – | 15.7 | 5.8 |
| CCCOC(=O)C(C)(C)NP(=O)(CO[C@H](C)Cn1cnc2c(N)ncnc21)NC(=O)c1ccc(OC)cc1 (stereo partly drawn) [Example 2B, propyl 2-(((R)—((((R)-1-(6-amino-9H-purin-9-yl)propan-2-yl)oxy)methyl)(4-methoxy-benzamido)phosphoryl)amino)-2-methylpropanoate and propyl 2-(((S)—((((R)-1-(6-amino-9H-purin-9-yl)propan-2-yl)oxy)methyl(4-methoxybenzamido)phosphoryl)amino)-2-methylpropanoate] | 69.8 | 27.5 | – | – |
| CCCOC(=O)C(C)(C)NP(=O)(CO[C@H](C)Cn1cnc2c(N)ncnc21)NC(=S)c1ccc(Cl)cc1 (stereo partly drawn) [Example 19, propyl 2-((((((R)-1-(6-amino-9H-purin-9-yl)propan-2-yl)oxy)methyl)(4-chlorophenylthioamido)phosphoryl)amino)-2-methylpropanoate] | 347 | 32.1 | – | – |
| CC(C)OC(=O)C(C)(C)NP(=O)(CO[C@H](C)Cn1cnc2c(N)ncnc21)NC(=S)c1ccc(Cl)cc1 (stereo partly drawn) [Example 20, isopropyl 2-((((((R)-1-(6-amino-9H-purin-9-yl)propan-2-yl)oxy)methyl)(4-chlorophenylthioamido)phosphoryl)amino)-2-methylpropanoate] | 494 | 118 | – | – |
